In US10774047B2 (THE TRUSTEES OF THE UNIVERSITY OF PENNSYLVANIA, priority 2015, dated 2020):
“Also recorded” adds a separate entry of the source.

Legend:
[1] = test system: A375P (melanoma) cells; experiment: MTT anti-proliferative assay (72 hr) in A375P cells; type: cell-based; conditions: for anti-proliferative potency / activity (comparative): A375P and PANC1 cells, FIGS. 1C and 1D
Procedure: (§1) (A) Schematic of dimeric antimalarials (B) A375P cells were plated in a 384-well highthroughput format and treated with the quinacrine-, mefloquine- and primaquine-based compounds shown (72 hr, 1 nM-30 μM). Viability was standardized to vehicle (water) treated controls and shown are Log IC50 values calculated using GraphPad Prism. Alamar blue. (C) A375P cells were treated with the DQ compound library (72 hr, 1 nM-30 μM) MTT. (D) PANC1 cells were treated identically to (C). (E) PANC1 cells were treated with the DQ compound library as well as Lys05, Spautin and SBI-0206965 (72 hr, 3 μM). Apoptosis was assessed by Annexin-V/flow cytometry.
For MTT assays, cells were plated in 96-well plates (2,000 cells/well), allowed to adhere overnight, and subsequently treated in triplicate for 72 hours. MTT reagent (Roche) was applied, cells were solubilized and absorbance was read at 570 nm, with background subtraction at 690 nm. The clonogenic assay was performed as previously described. Briefly, cells were suspended in appropriate culture media, and plated in 6-well plates (2×10^3 cells/well). Medium was changed and drug treatment refreshed every 3-4 days for 2 weeks. Cells were subsequently stained with crystal violet and quantified.
In an attempt to improve in vivo activity, we designed a series of second-generation analogs of Lys05 to test the effect of changing each of the separate parts of the Lys05 structure on lysosomal inhibition and cytotoxicity. Replacement of the linker of Lys05 with the commercially available linker spermidine and exchanging the aromatic rings of Lys05 from CQ to the antimalarial-based heterocyclic systems primaquine (PQ), mefloquine (MQ) and quinacrine (QC) was interrogated (FIG. 1A). The dimeric antimalarial compounds were named DC (dimeric chloroquine), DM (dimeric mefloquine), DP (dimeric primaquine) and DQ (dimeric quinacrine). The dimeric compounds were named followed by three digits (m, n, r) where m signifies the number of carbons to the left of the central nitrogen, the n signifies the number of carbons on the right of the central nitrogen and the r signifies if the central nitrogen is methylated (1) or not (0). […] We generated a focused library of DQs with triamine linkers of increasing length ranging from lengths of two to eleven carbons between the QC heterocycle and the central nitrogen of the triamine linker. Both secondary and tertiary amine derivatives of each analog were generated to determine the role of central nitrogen alkylation on biological activity. A375P and PANC1 (pancreatic cancer) cells were treated with CQ, Lys05, QC and the DQ library, establishing the increase in anti-proliferative potency of DQs relative to monomeric QC. […] We observed a clear relationship between linker length and potency amongst the DQs. […] When tested in parallel to the DQs. […] PANC1 cells were treated with the panel of DQs (3 uM) as well as Spautin-1 (3 μM) and SBI-0206965 (3 μM) for 24 hours.

[2] = test system: PANC1 cells; experiment: Annexin V binding flow cytometry apoptosis assay; type: cell-based; conditions: 3 μM, 24 hours
Procedure: as §1
In an attempt to improve in vivo activity, we designed a series of second-generation analogs of Lys05 to test the effect of changing each of the separate parts of the Lys05 structure on lysosomal inhibition and cytotoxicity. Replacement of the linker of Lys05 with the commercially available linker spermidine and exchanging the aromatic rings of Lys05 from CQ to the antimalarial-based heterocyclic systems primaquine (PQ), mefloquine (MQ) and quinacrine (QC) was interrogated (FIG. 1A). The dimeric antimalarial compounds were named DC (dimeric chloroquine), DM (dimeric mefloquine), DP (dimeric primaquine) and DQ (dimeric quinacrine). […]

[3] = test system: A375P cells; experiment: Galectin-3 punctae assay (lysosomal membrane permeabilization); type: cell-based; conditions: 6 hours (LLOMe 3 hr, 2 mM)
Procedure: (§2) FIG. 3: Central nitrogen methylation status dictates DNA damage versus lysosomal membrane permeability. […] Cells were imaged with fluorescent microscopy, phospho-H2AX+ cells were scored using ImageJ software analysis and quantified to the right. (B) A375P cells were treated identical to the conditions in (A), with the addition of the positive control LLoMe (3 hr, 2 mM). Cells were subsequently stained with galectin-3 and imaged with fluorescent microscopy. The formation of galectin-3 punctae, which signify lysosomal membrane permeabilization, are pointed out with yellow arrows.
When lysosomes are healthy, galectin-3 is uniformly dispersed throughout the cell. However, when the lysosome is damaged, galectin-3 rapidly localizes to the site of damaged lysosomes, appearing as punctae and marking individual leaky lysosomes.

[4] = test system: 451Lu (melanoma) cells; experiment: Bafilomycin clamp experiment (autophagic flux); type: cell-based; conditions: 3 μM, with or without bafilomycin-A1, 24 hours
[5] = test system: mTORC1; experiment: Immunoblot of mTORC1 signaling and LC3B, panel of lysosomal inhibitors; conditions: A375P cells; for 4E-BP1 phosphorylation: PES 10 μM, PET 10 μM, Bafilomycin A1 100 nM; for mTORC1 activity (Western blotting): DQ661 3 μM, Pepstatin A 10 μG/mL, Siramesine 8 μM
[6] = test system: 1205Lu melanoma xenografts; experiment: 1205Lu melanoma xenograft model; type: in vivo, NSG mice; conditions: 8 mg/kg i.p., 2 days on / 2 days off
Procedure: FIG. 5: DQ661 has significant single-agent in vivo activity in melanoma xenograft model. […]. Mice were randomly split into 4 arms and treated with vehicle control (water, i.p.), quinacrine (8 mg/kg, i.p.), DQ660 (8 mg/kg, i.p.) or DQ661 (8 mg/kg, i.p.). Treatments were given as shown by the black arrows, following a regimen of 2 days on treatment followed by 2 days off treatment. (C) Representative electron micrographs from melanoma xenograft tumors harvested after 2 days of treatment according to (B). (D) Average tumor volumes for each treatment arm are shown. Each point represents the mean of N=8 mice per treatment arm and the error bars represent standard error (s.e.) (C) Representative EM for tumors treated in each arm. (E) A schematic for how mice were treated in (F). […]. Mice were randomly split into 3 arms and treated with water (i.p.), DQ661 (2 mg/kg, i.p.) or DQ661 (4 mg/kg, i.p.). Treatments were give as shown by the black arrows, following a regimen of 2 days on treatment followed by 2 days […]. Tumor volume is shown. Each point represents the mean of N=8 mice per treatment arm and the error bars represent s.e. (G) Average tumor growth rate for each treatment arm are shown. (H) Protein lysate was harvested from mouse tumors at the end of the experiment and immunoblotted for LC3B, phospho-4E-BP1 T37_T65, phospho-4E-BP1 S240_S244 and Actin. Quantification of proteins standardized to control mice levels are shown to the right.
Five to seven-week old NOD-scid gamma (NSG) mice (Jackson Laboratory) were used for xenograft studies with the 1205Lu melanoma cell line. Tumor generation, tumor measurement and tumor harvesting performed as previously described (ref). For the pancreatic cancer model, five to seven-week old C57BL/6 mice (Jackson Laboratory) and maintained under pathogen-free conditions. 2×10^6 G43 cells were subcutaneously injected with an equal volume of matrigel (BD) over the right flank […] and tumors became palpable after 5-6 days. Mice were enrolled on day 6 and given Gemcitabine (120 mg/kg, i.p.). DQ661 (4 mg/kg, i.p.) was given on days 7, 8, 12, 13, 17 and 18. Perpendicular tumor diameters were measured sing electronic calipers and volume was calculated leveraging the formula L×W^2×0.5, where L is the longest dimension and W is the perpendicular dimension. All animal experiments were performed in accordance to the protocols approved by the Institute of Animal Care and Use Committee of the University of Pennsylvania.
. After 1-2 weeks, tumors were palpable and mice were treated with vehicle control (water), quinacrine (8 mg/kg), DQ660 (8 mg/kg) or DQ661 (8 mg/kg) i.p (FIG. 5A). […]. Therefore another 1205Lu xenograft experiment was performed with mice treated with either vehicle control (water, n=6) or DQ661 (2 or 4 mg/kg, n=6) for a period of 14 days (FIG. 5e, 5F).

[7] = test system: A375P cells; experiment: phospho-H2AX immunofluorescence (DNA damage); type: cell-based; conditions: 6 hr, 3 μM
Procedure: as §2
The longer linked DQs can be separated into two classes based on central nitrogen substitution (secondary or tertiary amine)—those that localize to the nucleus and those that localize to the lysosome. We next sought to determine whether both classes of DQs cause DNA damage since quinacrine is known to intercalate DNA. […] Furthermore, the difference in DNA damage induced by unmethylated DQs versus the corresponding methylated DQs for each pair of compounds increase with increasing linker length.

Question: Which results are given for `CNC(=O)c1ccccc1Oc1nc(Nc2cc(OC)c(OC)c(OC)c2)ncc1Br` [SBI-0206965, reference compound]?
Answer: anti-proliferative potency / activity (comparative) [1]: did not have significantly increased anti-cancer activity relative to monomeric chloroquine or monomeric quinacrine; apoptosis (annexin V) [2]: did not induce significant levels of apoptosis

Question: `COC(=O)[C@H](CC(C)C)NC(=O)[C@@H](N)CC(C)C` [LLOMe, L-leucyl-L-leucine methyl ester, reference compound] was tested. Which galectin-3 staining pattern [3] did it give?
Answer: Its galectin-3 staining pattern is “punctate distribution of galectin-3”.

Question: Which “effect on autophagic flux (LC3II/LC3I ratio with vs without bafilomycin-A1)” value [4] does the source give for `COc1ccc2nc3cc(Cl)ccc3c(NCCCCN(C)CCCNc3c4ccc(Cl)cc4nc4ccc(OC)cc34)c2c1` [DQ 341] here?
Answer: The value was “autophagy inhibitors”.

Question: Which 4E-BP1 phosphorylation [5] does the source give for `NS(=O)(=O)C#Cc1ccccc1` [PES] here?
Answer: Its 4E-BP1 phosphorylation is “hyperphosphorylation of 4E-BP1”.

Question: Which “mTORC1 activity (Western blotting)” value [5] does the source give for `Fc1ccc(-n2cc(CCCCN3CCC4(CC3)OCc3ccccc34)c3ccccc32)cc1` [Siramesine] here?
Answer: The value was “did not inhibit mTORC1 activity”.

Question: How did the “effect on autophagic flux (LC3II/LC3I ratio with vs without bafilomycin-A1)” value [4] turn out when `COc1ccc2nc3cc(Cl)ccc3c(NCCCCN(C)CCCCNc3c4ccc(Cl)cc4nc4ccc(OC)cc34)c2c1` [DQ 441] was run?
Answer: Its value is “autophagy inhibitors”.

Question: Which tumor growth [6] does the source give for `CCN(CC)CCCC(C)Nc1c2ccc(Cl)cc2nc2ccc(OC)cc12` (centres unmarked) [quinacrine, reference compound] here?
Answer: The tumor growth was “no significant effect on tumor growth compared to vehicle control”.

Question: And the galectin-3 staining pattern [3]?
Answer: The galectin-3 staining pattern was “diffuse staining for galectin-3”.

Question: And the “effect on autophagic flux (LC3II/LC3I ratio with vs without bafilomycin-A1)” value [4]?
Answer: Its value is “induces autophagic flux”.

Question: How did the tumor growth [6] turn out when `COc1ccc2nc3cc(Cl)ccc3c(NCCCCCCNCCCCCCNc3c4ccc(Cl)cc4nc4ccc(OC)cc34)c2c1` [DQ 660] was run?
Answer: The tumor growth was “modest but significant growth impairment of tumors”.

Question: What about the galectin-3 staining pattern [3] of the same compound?
Answer: The galectin-3 staining pattern was “diffuse staining for galectin-3”.

Question: And the “DNA damage (phospho-H2AX, γ-H2AX)” value [7]?
Answer: The value was “significantly greater levels of DNA damage relative to their methylated counterparts”.

Question: With `COc1ccc2nc3cc(Cl)ccc3c(NCCCNCCCNc3c4ccc(Cl)cc4nc4ccc(OC)cc34)c2c1` [DQ 330] as the compound, how does the “anti-proliferative potency / activity (comparative)” value [1] read?
Answer: The value was “significant increase in anti-proliferative potency”.

Question: Which results are given for `Fc1ccc(CNc2ncnc3ccc(F)cc23)cc1` [Spautin-1, reference compound]?
Answer: anti-proliferative potency / activity (comparative) [1]: did not have significantly increased anti-cancer activity relative to monomeric chloroquine or monomeric quinacrine; apoptosis (annexin V) [2]: did not induce significant levels of apoptosis

Question: Which 4E-BP1 phosphorylation [5] does the source give for Bafilomycin here?
Answer: The 4E-BP1 phosphorylation was “hyperphosphorylation of 4E-BP1”.

Question: `COc1ccc2nc3cc(Cl)ccc3c(NCCCCNCCCNc3c4ccc(Cl)cc4nc4ccc(OC)cc34)c2c1` [DQ 340] was tested. Which “IC50, anti-proliferative activity” value ([1]; A375P cells, FIG. 1B) did it give?
Answer: The value was “low nanomolar”.

Question: What does the source list for `COc1ccc2nc3cc(Cl)ccc3c(NCCCCCNCCCCCNc3c4ccc(Cl)cc4nc4ccc(OC)cc34)c2c1` [DQ 550]?
Answer: galectin-3 staining pattern [3]: diffuse staining for galectin-3; DNA damage (phospho-H2AX, γ-H2AX) [7]: significantly greater levels of DNA damage relative to their methylated counterparts

Question: How did the galectin-3 staining pattern [3] turn out when `COc1ccc2nc3cc(Cl)ccc3c(NCCN(C)CCNc3c4ccc(Cl)cc4nc4ccc(OC)cc34)c2c1` [DQ 221] was run?
Answer: Its galectin-3 staining pattern is “diffuse staining for galectin-3”.

Question: And the “effect on autophagic flux (LC3II/LC3I ratio with vs without bafilomycin-A1)” value [4]?
Answer: Its value is “autophagy inhibitors”.

Question: And the “anti-proliferative potency / activity (comparative)” value [1]?
Answer: Its value is “same activity as monomeric QC; also recorded: potency was equal to monomeric quinacrine”.

Question: With `COc1ccc2nc3cc(Cl)ccc3c(NCCCCCN(C)CCCCCNc3c4ccc(Cl)cc4nc4ccc(OC)cc34)c2c1` [DQ 551] as the compound, how does the galectin-3 staining pattern [3] read?
Answer: The galectin-3 staining pattern was “punctate distribution of galectin-3”.

Question: And the “effect on autophagic flux (LC3II/LC3I ratio with vs without bafilomycin-A1)” value [4]?
Answer: Its value is “autophagy inhibitors”.

Question: Which “mTORC1 activity (Western blotting)” value [5] does the source give for Pepstatin A here?
Answer: The value was “did not significantly affect mTORC1 activity”.
